According to patent US20180127360A1 (Elé Corporation, priority 2016, published 2018):

Experiment: Surface tension, du Nouy ring interfacial tensiometer
Format: physicochemical
Conditions: 25° C.
Protocol: Surface tension measurements were taken on solutions made from the mixture prepared in Example 1(C) using a du Nouy ring interfacial tensiometer, equipped with a six-cm circumference platinum-iridium ring. A series of test solutions at different concentrations were prepared and their surface tension measured at 25° C. For each test concentration, the ring is slowly drawn out of the liquid. The surface tension is equal to the force required to draw the ring completely out of the liquid, divided by twice the circumference of the ring. […] The surface tension at the CMC was 29.6 dyne/cm.

CCCCCCCCCCCCNCCC(=O)O.N=C(N)NCCCC(N)C(=O)O [Example 1(C)]
surface tension at the CMC: 29.6 dyne/cm | Critical Micelle Concentration (CMC) (series of test solutions at different concentrations): 2.46 millimoles per liter
